In patent US9896445B2, “Heterocyclic inhibitors of ERK1 and ERK2 and their use in the treatment of cancer” (Asana Biosciences, LLC, priority 2015, dated 2018):
pIC50: −log10 of the molar value.

Columns and labels:
[1] = target: T1, ERK1 (Homo sapiens, UniProt P27361); experiment: ERK1 HTRF (biochemical) assay; conditions: HTRF
T1 construct: purchased Jubilant Biosys
Protocol: (§1) ERK1 and ERK2 HTRF (Biochemical) Assays
These assays employed a homogeneous time resolved fluorescence (HTRF) technique. […] The plate was incubated at room temperature for 60 min with shaking. […] The IC50 values (half maximal inhibitory concentration values) were subsequently determined using a sigmoidal dose-response curve (variable slope) in GraphPad Prism® 5 software.

[2] = target: T2, ERK2 (Homo sapiens, UniProt P28482); experiment: ERK2 HTRF (biochemical) assay; conditions: HTRF
T2 construct: purchased Jubilant Biosys
T2 sequence (P28482 whole entry): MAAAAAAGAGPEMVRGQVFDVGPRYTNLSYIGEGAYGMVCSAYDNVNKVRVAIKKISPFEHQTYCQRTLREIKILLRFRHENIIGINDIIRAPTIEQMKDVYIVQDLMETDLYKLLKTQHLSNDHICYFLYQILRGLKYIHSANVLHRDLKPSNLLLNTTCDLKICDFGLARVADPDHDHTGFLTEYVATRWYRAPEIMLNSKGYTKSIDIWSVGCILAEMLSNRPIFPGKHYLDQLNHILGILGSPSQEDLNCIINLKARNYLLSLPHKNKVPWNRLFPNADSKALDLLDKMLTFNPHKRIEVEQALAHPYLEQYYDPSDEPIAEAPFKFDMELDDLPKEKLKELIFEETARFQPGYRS
Protocol: as §1
These assays employed a homogeneous time resolved fluorescence (HTRF) technique. The compounds were serially diluted by half-log with concentrations ranging from 0.0005 to 10 uM in the assay buffer (50 mM Tris pH=7.5, 1 mM EGTA, 2 mM DTT, 10 mM MgCl2, 0.1% Tween-20) and 20 uL of substrate-ATP mix [1 uM Biotin-LC-Myelin Basic Protein (MBP) derivatized Peptide (Anaspec)-24 uM ATP (Sigma)] was added to each well of the assay plate. Then 10 uL of enzyme mix [25 nM ERK1 or ERK2 (Jubilant Biosys) in assay buffer] was added to each well. The plate was incubated at room temperature for 60 min with shaking. The HTRF mix [625 nM LANCE® Ultra Europium-anti-phospho-MBP (Perkin Elmer) and 2 nM Phycolink® Streptavidin-Allophycocyanin (SA-APC) (Prozyme) in HTRF buffer (50 mM Tris-HCl pH=7.5, 100 mM NaCl, 0.1% BSA, 0.05% Tween20, 0.5 mM EDTA)] was prepared and 75 uL of this mix was added to the HTRF plate. After incubation for 60 min at room temperature, 10 uL of the reaction mixture was transferred to the HTRF assay plate and incubated for 45 min at room temperature with shaking. Plate was read using Pherastar in HTRF mode (excitation 337 nm, emission 665 & 620 nm). The IC50 values (half maximal inhibitory concentration values) were subsequently determined using a sigmoidal dose-response curve (variable slope) in GraphPad Prism® 5 software.

T1 sequence (P27361 whole entry): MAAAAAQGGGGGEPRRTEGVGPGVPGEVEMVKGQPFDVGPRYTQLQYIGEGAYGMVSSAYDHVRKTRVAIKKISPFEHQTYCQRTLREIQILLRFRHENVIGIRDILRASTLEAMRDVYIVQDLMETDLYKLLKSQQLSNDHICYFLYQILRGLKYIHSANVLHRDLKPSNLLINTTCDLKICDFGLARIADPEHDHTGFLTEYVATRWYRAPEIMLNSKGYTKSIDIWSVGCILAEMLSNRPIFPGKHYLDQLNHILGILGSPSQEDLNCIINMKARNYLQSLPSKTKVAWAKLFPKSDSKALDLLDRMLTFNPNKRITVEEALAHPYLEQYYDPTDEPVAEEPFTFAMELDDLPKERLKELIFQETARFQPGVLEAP

Row | SMILES | pIC50 [1] | pIC50 [2]
1 | Cc1cnc(Nc2ccc3c(c2)OCO3)nc1-n1ccc(C(=O)NC(CO)c2cccc(Cl)c2)c1 (stereo not shown) [Compound 42, 1-(2-(benzo[d][1,3]dioxol-5-ylamino)-5-methylpyrimidin-4-yl)-N-(1-(3-chloro-phenyl)-2-hydroxy-ethyl)-1H-pyrrole-3-carboxamide] | > 7.30 | ≥ 7.30
2 | Cc1cnc(Nc2ccccc2Cl)nc1-n1cc(NC(=O)NC(CO)c2cccc(Cl)c2)cn1 (stereo not shown) [Compound 43, 1-(1-(3-chlorophenyl)-2-hydroxyethyl)-3-(1-(2-((2-chloro-phenyl)amino)-5-methylpyrimidin-4-yl)-1H-pyrazol-4-yl)urea] | < 5.60 | < 5.60
3 | Cc1cnc(Nc2ccc3c(c2)OCO3)nc1-n1cc(NC(=O)N[C@H](CO)c2cccc(Cl)c2)cn1 [Compound 44, (S)-1-(1-(2-(benzo[d][1,3]dioxol-5-ylamino)-5-methylpyrimidin-4-yl)-1H-pyrazol-4-yl)-3-(1-(3-chloro-phenyl)-2-hydroxy-ethyl)urea] | 7.00 to 7.30 | ≥ 7.30
4 | Cc1cnc(Nc2ccc(F)cc2Cl)nc1-n1cc(C(=O)NC(CO)c2cccc(Cl)c2)cn1 (stereo not shown) [Compound 45, 1-(2-((2-chloro-4-fluorophenyl)amino)-5-methyl-pyrimidin-4-yl)-N-(1-(3-chlorophenyl)-2-hydroxyethyl)-1H-pyrazole-4-carboxamide] | > 7.30 | ≥ 7.30
5 | O=C(NC(CO)c1cccc(Cl)c1)c1ccn(-c2ccnc(Nc3ccccc3)c2)c1 (stereo not shown) [Compound 46, N-(1-(3-chloro-phenyl)-2-hydroxy-ethyl)-1-(2-(phenyl-amino)pyridin-4-yl)-1H-pyrrole-3-carboxamide] | > 7.30 | ≥ 7.30
6 | Cc1cnc(Nc2ccc3c(c2)OCO3)nc1-n1ccc(C(=O)NC(CO)c2ccccc2)c1 (stereo not shown) [Compound 47, 1-(2-(benzo[d][1,3]dioxol-5-ylamino)-5-methylpyrimidin-4-yl)-N-(2-hydroxy-1-phenylethyl)-1H-pyrrole-3-carboxamide] | > 7.30 | ≥ 7.30
7 | Cc1cnc(Nc2ccc3c(c2)OCO3)nc1-n1cnc(C(=O)N[C@H](CO)c2cccc(Cl)c2)c1 [Compound 48, (S)-1-(2-(benzo[d][1,3]dioxol-5-ylamino)-5-methylpyrimidin-4-yl)-N-(1-(3-chloro-phenyl)-2-hydroxy-ethyl)-1H-imidazole-4-carboxamide] | > 7.30 | ≥ 7.30
8 | Cc1cnc(Nc2ccc3c(c2)OCO3)nc1-n1cc(NC(=O)N[C@@H](CO)c2cccc(Cl)c2)cn1 [Compound 51, (R)-1-(1-(2-(benzo[d][1,3]dioxol-5-ylamino)-5-methylpyrimidin-4-yl)-1H-pyrazol-4-yl)-3-(1-(3-chloro-phenyl)-2-hydroxy-ethyl)urea] | 6.30 to 7.00 | 7.00 to 7.30
9 | O=C(N[C@H](CO)c1cccc(Cl)c1)c1cnn(-c2ccnc(Nc3ccccc3)n2)c1 [Compound 53, (S)-N-(1-(3-chlorophenyl)-2-hydroxyethyl)-1-(2-(phenylamino)pyrimidin-4-yl)-1H-pyrazole-4-carboxamide] | 6.30 to 7.00 | 6.30 to 7.00
10 | Cc1cnc(Nc2ccc(F)cc2Cl)nc1-n1cc(C(=O)NC(CN)c2ccccc2)cn1 (stereo not shown) [Compound 54, N-(2-amino-1-phenylethyl)-1-(2-((2-chloro-4-fluoro-phenyl)amino)-5-methylpyrimidin-4-yl)-1H-pyrazole-4-carboxamide] | 7.00 to 7.30 | ≥ 7.30
11 | Cc1cnc(Nc2ccc(F)cc2Cl)nc1-n1ccc(C(=O)N[C@H](CO)c2cccc(Cl)c2)c1 [Compound 57, (S)-1-(2-((2-chloro-4-fluorophenyl)-amino)-5-methyl-pyrimidin-4-yl)-N-(1-(3-chlorophenyl)-2-hydroxyethyl)-1H-pyrrole-3-carboxamide] | > 7.30 | ≥ 7.30
12 | Cc1cnc(Nc2ccc3c(c2)OCO3)nc1-n1ccc(C(=O)NC(CO)c2cc(Cl)cc(Cl)c2)c1 (stereo not shown) [Compound 58, 1-(2-(benzo[d][1,3]dioxol-5-ylamino)-5-methylpyrimidin-4-yl)-N-(1-(3,5-dichlorophenyl)-2-hydroxyethyl)-1H-pyrrole-3-carboxamide] | > 7.30 | ≥ 7.30
13 | Cc1cnc(Nc2ccc3c(c2)OCO3)nc1-n1ccc(C(=O)N[C@H](CO)Cc2ccccc2)c1 [Compound 59, (S)-1-(2-(benzo[d][1,3]dioxol-5-ylamino)-5-methylpyrimidin-4-yl)-N-(1-hydroxy-3-phenylpropan-2-yl)-1H-pyrrole-3-carboxamide] | 7.00 to 7.30 | ≥ 7.30
14 | Cc1cnc(Nc2ccc3c(c2)OCO3)nc1-n1ccc(C(=O)N[C@H](CO)c2ccccc2)c1 [Compound 60, (S)-1-(2-(benzo[d][1,3]dioxol-5-ylamino)-5-methylpyrimidin-4-yl)-N-(2-hydroxy-1-phenylethyl)-1H-pyrrole-3-carboxamide] | > 7.30 | ≥ 7.30
15 | Cc1cnc(Nc2ccc3c(c2)OC(F)(F)O3)nc1-n1ccc(C(=O)NC(CO)c2cccc(Cl)c2)c1 (stereo not shown) [Compound 62, N-(1-(3-chloro-phenyl)-2-hydroxyethyl)-1-(2-((2,2-difluoro-benzo[d][1,3]dioxol-5-yl)amino)-5-methylpyrimidin-4-yl)-1H-pyrrole-3-carboxamide] | > 7.30 | ≥ 7.30
16 | Cc1cnc(Nc2ccc3c(c2)OC(F)(F)O3)nc1-n1ccc(C(=O)NC(CO)c2ccccc2)c1 (stereo not shown) [Compound 63, 1-(2-((2,2-difluoro-benzo[d][1,3]dioxol-5-yl)amino)-5-methylpyrimidin-4-yl)-N-(2-hydroxy-1-phenylethyl)-1H-pyrrole-3-carboxamide] | > 7.30 | ≥ 7.30
17 | COC[C@@H](NC(=O)c1ccn(-c2nc(Nc3ccc4c(c3)OCO4)ncc2C)c1)c1ccccc1 [Compound 64, (S)-1-(2-(benzo[d][1,3]dioxol-5-ylamino)-5-methylpyrimidin-4-yl)-N-(2-methoxy-1-phenylethyl)-1H-pyrrole-3-carboxamide] | > 7.30 | ≥ 7.30
18 | O=C(NC(CO)c1ccccc1)c1ccn(-c2nc(Nc3ccc4c(c3)OCO4)ncc2F)c1 (stereo not shown) [Compound 66, 1-(2-(benzo[d][1,3]dioxol-5-ylamino)-5-fluoropyrimidin-4-yl)-N-(2-hydroxy-1-phenylethyl)-1H-pyrrole-3-carboxamide] | > 7.30 | ≥ 7.30
19 | O=C(NC(CO)c1ccccc1)c1ccn(-c2nc(Nc3ccccc3Cl)ncc2F)c1 (stereo not shown) [Compound 67, 1-(2-((2-chloro-phenyl)amino)-5-fluoropyrimidin-4-yl)-N-(2-hydroxy-1-phenylethyl)-1H-pyrrole-3-carboxamide] | > 7.30 | ≥ 7.30
20 | Cc1cnc(Nc2ccc3occc3c2)nc1-n1ccc(C(=O)NC(CO)c2cccc(Cl)c2)c1 (stereo not shown) [Compound 68, 1-(2-(benzofuran-5-ylamino)-5-methylpyrimidin-4-yl)-N-(1-(3-chlorophenyl)-2-hydroxyethyl)-1H-pyrrole-3-carboxamide] | > 7.30 | ≥ 7.30
21 | Cc1cnc(Nc2ccc3c(c2)OC(F)(F)O3)nc1-n1ccc(C(=O)N[C@H](CO)c2ccc(F)c(Cl)c2)c1 [Compound 69, (S)-N-(1-(3-chloro-4-fluorophenyl)-2-hydroxyethyl)-1-(2-((2,2-difluoro-benzo[d][1,3]dioxol-5-yl)amino)-5-methylpyrimidin-4-yl)-1H-pyrrole-3-carboxamide] | > 7.30 | ≥ 7.30
22 | Cc1cnc(Nc2ccc3c(c2)OCO3)nc1-n1ccc(C(=O)NC(CO)c2cccc(Cl)c2F)c1 (stereo not shown) [Compound 70, 1-(2-(benzo[d][1,3]dioxol-5-ylamino)-5-methylpyrimidin-4-yl)-N-(1-(3-chloro-2-fluorophenyl)-2-hydroxyethyl)-1H-pyrrole-3-carboxamide] | > 7.30 | ≥ 7.30
23 | O=C(NC(CO)c1ccccc1)c1ccn(-c2ccnc(Nc3ccccc3)c2)c1 (stereo not shown) [Compound 71, N-(2-hydroxy-1-phenylethyl)-1-(2-(phenylamino)pyridin-4-yl)-1H-pyrrole-3-carboxamide] | > 7.30 | ≥ 7.30
24 | O=C(N[C@H](CO)c1cccc(Cl)c1)c1cn(-c2ccnc(Nc3ccccc3)c2)cn1 [Compound 72, (S)-N-(1-(3-chlorophenyl)-2-hydroxyethyl)-1-(2-(phenylamino)pyridin-4-yl)-1H-imidazole-4-carboxamide] | > 7.30 | ≥ 7.30
25 | Cc1cnc(Nc2ccc(N3CCNCC3)cc2)nc1-n1ccc(C(=O)NC(CO)c2ccccc2)c1 (stereo not shown) [Compound 73, N-(2-hydroxy-1-phenylethyl)-1-(5-methyl-2-((4-(piperazin-1-yl)-phenyl)amino)pyrimidin-4-yl)-1H-pyrrole-3-carboxamide] | > 7.30 | ≥ 7.30
26 | CC[C@@H](CO)Nc1ncc(C)c(-n2ccc(C(=O)NC(CO)c3ccccc3)c2)n1 (stereo partly drawn) [Compound 75, N-(2-hydroxy-1-phenylethyl)-1-(2-(((S)-1-hydroxy-butan-2-yl)amino)-5-methylpyrimidin-4-yl)-1H-pyrrole-3-carboxamide] | > 7.30 | ≥ 7.30
